Test results published in patent US11351176B2, “Combination therapy” (MEI Pharma, Inc., priority 2017, dated 2022).

Legend:
[1] = tested on: relapsed chronic lymphocytic leukemia (CLL); conditions: combination of idelalisib and a CD20 inhibitor (e.g., rituximab or ofatumumab); cited from earlier work
[2] = tested on: relapsed B-cell Non-Hodgkin's Lymphoma (NHL), including Chronic Lymphocytic Leukemia (CLL); assay: Phase 1b study of Compound A35 and rituximab in patients with relapsed B-cell malignancies; assay type: in vivo, human
Description: Study of a Combination of a PI3K Inhibitor and a CD20 Inhibitor in Patients with Relapsed B-Cell Non-Hodgkin's Lymphoma (NHL), Including Chronic Lymphocytic Leukemia (CLL)
The purpose of this study is to evaluate the safety and effectiveness of Compound A35 (single dose: 60 mg/day) and rituximab, in patients with relapsed B-cell malignancies.
• Study Type: Interventional • Study Design: Intervention Model: Single Group Assignment • Masking: No masking • Primary Purpose: Treatment
Primary Outcome Measures: • Determine Acceptable Adverse Events That Are Related to Treatment [Time Frame: 6 months of therapy]. To determine the incidence of adverse events, any potential abnormal laboratory results and any dose-limiting toxicities Secondary Outcome Measures: • Efficacy of Compound A35 with Rituximab as assessed by Overall Response (OR) [Time Frame: 2 years]. The efficacy of Compound A35 with Rituximab will be determined by the overall response of subjects calculated as the percent of subjects achieving a complete remission (CR) or a complete remission with incomplete marrow recovery (CRi) or a partial response (PR) according to the International Workshop on Chronic Lymphocytic Leukemia (IWCLL). • Evaluate the PK of Compound A35 with Rituximab (AUC) [Time Frame: 2 years] Determined by the Area Under the Concentration time curve (AUC) • Evaluate the PK of Compound A35 with Rituximab (Cmax) [Time Frame: 2 years] Determined by Peak Plasma Concentration (Cmax)
Eligibility • Ages Eligible for Study: 18 Years and older (Adult, Senior) • Sexes Eligible for Study: All • Accepts Healthy Volunteers: No Criteria Inclusion Criteria: • Diagnosis of relapsed/refractory CLL SLL or FL, MZL, DLBCL and high-grade B-cell lymphoma.
Dosing of Compound A35 is done on a continuous dosing schedule (CS) or an intermittent dosing schedule (IS). On an IS, patients take 60 mg administered once a day on 7 consecutive days followed by 21 days without therapy, with cycles repeated every 28 days. On a CS, patients take 60 mg/day for the entirety of a 28 day cycle. All patients are started on a CS dosing regimen. Patients who complete two cycles of CS are switched to the IS.
In all cases, the dosing of rituximab is 375 mg/m2, administered for a total of 8 doses in 6 months.
15 patients were treated with a regimen consisting of rituximab 375 mg/m^2×8 doses over 6 months and Compound A35 at 60 mg on the CS for 2 cycles then switching to the IS.

SMILES	risk of death due to infection and/or severe adverse effects (in words) [1]	response (patients with a reported response) ([2]; in combination with rituximab 375 mg/m2 x 8 doses in 6 months, Compound A35 60 mg/day continuous schedule (CS), indolent NHL (9 FL, 1 MZL), 7 of 10 patients)	disease progression on the IS among patients with a disease response after 2 cycles ([2]; in combination with rituximab, 8 responders, median follow-up 5.2 months from enrollment)	patients with disease progression, discontinued from the study ([2]; in combination with rituximab, CS of Compound A35 60 mg/day, indolent NHL, 10 patients)	rate of response (in words) ([2]; in combination with rituximab, CS, patients)	patients discontinued due to disease progression ([2]; in combination with rituximab, Compound A35 60 mg/day, DLBCL, 4 patients)	response (patients with a reported response) ([2]; in combination with rituximab, Compound A35 60 mg/day, DLBCL, 1 of 4 patients)	patients who developed delayed immune-related toxicity ([2]; in combination with rituximab, after 2 cycles CS switched to intermittent schedule (IS, 60 mg 7 days on/21 days off), 1/10 patients, median follow-up 3.4 months on the IS)	effect of the IS on delayed onset immune toxicities and efficacy (in words) ([2]; in combination with rituximab, intermittent schedule after 2 CS cycles, preliminary data)	rate of response (in words) ([2]; in combination with rituximab, patients with relapsed indolent NHL and CLL/SLL)	durability of responses (in words) ([2]; in combination with rituximab, relapsed indolent NHL and CLL/SLL)
CC[C@H](Nc1ncnc2[nH]cnc12)c1nc2cccc(F)c2c(=O)n1-c1ccccc1 [idelalisib]	alarming increase in the risk of death due to infection and/or severe adverse effects	–	–	–	–	–	–	–	–	–	–
CN1CCC(c2ccccc2CC(C)(C)Nc2nc(N3CCOCC3)nc(-n3c(C(F)F)nc4ccccc43)n2)CC1 [Compound A35]	–	70%	none	1 patient	very high rate of response	3 patients	25%	10%	appears to reduce the incidence of delayed onset immune toxicities without erosion in treatment efficacy	very high rate of response	appear durable
